Measurements as given in US20130274233A1, “MODULATORS OF HEDGEHOG SIGNALING PATHWAY” (priority 2012, published 2013).
pEC50, pIC50: −log10 of the molar value.

Key:
[1] = test system: cerebellar granule neuron precursors (CGNPs) from P7 Ptch1+/− mice; assay: CGNP proliferation assay (pH3 positive cells); type: cell-based
Description: CGNP primary cells were isolated from P7 Ptch1+/− mice as previously reported^43 and immediately seeded in poly-D-lysine coated imaging plates (Greiner Bio-one). Compounds were applied 2 hours post seeding, for either 36 (FIG. 5a-b) or 72 hours (FIG. 5d-e). After completion of each experimental regimen, cells were fixed with 4% paraformaldehyde (Electron Microscopy Sciences), and stained with anti-pH3 antibody (Upstate; 1:100) followed by a secondary antibody (Invitrogen) and Hoechst (Invitrogen). Images were then collected using a confocal microscope. Cell proliferation, as marked by a pH3 signal, was quantified with an in-house program developed by the authors using Acapella 2.0 software. Identical microscopic settings were used in each analysis and identical input parameters were implemented for each experiment.
CGNP primary cells were isolated from P7 Ptch1+/− mice as previously reported^44. Cells were seeded in poly-D-lysine coated imaging plates (Greiner Bio-one), treatments were applied 2 hours thereafter and last for 36 hours. Cells then were fixed with 4% paraformaldehyde (Electron Microscopy Sciences), and stained with anti-pH3 antibody (Upstate; 1:100) followed by a secondary antibody (Invitrogen) and Hoechst (Invitrogen). Images were collected and cell proliferation quantified with a program developed by the authors utilizing Acapella 2.0 software. All of the images in each experiment were collected with identical microscopic settings and analyzed with identical input parameters.

Wnt signaling activity = assay: Wnt Top-flash reporter assay; type: cell-based; details: with or without Wnt3a
Description: (§1) Hh activity assays were performed using ShhLightll cells, Smo/Lightll cells, SmoM2/Lightll cells, and suFU−/− mouse embryonic fibroblasts. In the suFU−/− cells, Hh activity was measured after co-transfection with Gli driven firefly luciferase and TK-renilla luciferase reporters^41. Wnt activity was measured in 293 cells co-transfected with Top-flash and TK-renilla luciferase reporters^42. Cells were cultured and treated in 96 well assay plates (Corning) and incubated with Duo-Glo luciferase substrates (Promega) to measure firefly and renilla luciferase activity sequentially using a Top Count NX Microplate Scintillation and Luminescence Counter (Perkin Elmer). The renilla luciferase signal was used to normalize the firefly reporter activity.
(§2) ShhLightII cells and SmoM2/LightII cells were cultured and treated in 96 well assay plates (Corning) and incubated with Duo-Glo luciferase substrates (Promega) to sequentially measure firefly and renilla luciferase activity. Smo, or GFP, expression plasmids were co-transfected into 3T3 cells together with a Gli-responsive firefly reporter and a TK-renilla luciferase reporter contruct to monitor effects of Smo overexpression. Co-transfection of the two reporter constructs was conducted in assays measuring Hh pathway activity in suFU−/− cells. Wnt activity was measured following co-transfection of a Top-flash and renilla luciferase reporter. In both Hh and Wnt activity assays, renilla luciferase reporter activity, or mass of protein, was used to normalize expression values. Luciferase signal was read by TopCount NX Microplate Scintillation and Luminescence Counter (Perkin Elmer). Quantitative PCR probes for Ptch1, Gli1, and β-actin were purchased from Applied Biosystems. Reactions and measurements were performed using on an Applied Biosystems 7900HT at Harvard FAS Center of System Biology. β-actin was used to normalize Ptch1 and Gil1 values.

Smo = assay: Bodipy-cyclopamine competition assay in Cos 7 cells expressing Smo; type: binding; details: for competition of Bodipy-Cyc binding to Smo: cells over-expressing Smo, 5 nM Bodipy-cyclopamine
Description: Cos 7 cells were transfected with a plasmid co-expressing Smo and a nuclear localized form of tagRFPT (pCIT-Smo). An empty parental construct (pCIT), and a construct that co-expresses SmoM2, were used as controls to assess specificity and background noise. Three days after transfection, cells were incubated with 5 nM Bodipy-cyclopamine, with or without other compounds for 1 hour at 37 °C. Cells were washed, fixed and stained with Hoechst. Images were collected by an Opera High Content Screen System. Bodipy fluorescence was quantified specifically for transfected cells (determined by red tagRFPT+ nucleus) using a program developed by the authors with Acapella 2.0 software. All of the images were scanned with identical microscopic settings and analyzed with the same input parameters.
Cos 7 cells were transfected with a plasmid that co-expresses Smo and a nuclear localized tagRFPT marker (pCIT-Smo). The empty parental construct (pCIT) and a construct that co-express SmoM2 were used as controls to assess specificity and background signal. Three days after transfection, cells were incubated with 5 nM Bodipy-cyclopamine, with or without additional compounds, for 1 hour at 37° C. Cells were then fixed and stained with Hoechst. Images were collected with the Opera High Content Screen System. Fluorescence values were assessed in transfected cells (red nuclei) with a program developed by the authors using Acapella 2.0 software. All of images were scanned with identical microscopic setting and analyzed with the same input parameters.

Hh pathway activity [2] = assay: Gli-luciferase reporter assay, Shh-induced Hh pathway activity (ShhLightII cells); type: cell-based
Text: NIH/3T3 cells were maintained in DMEM containing 10% (v/v) calf serum, penicillin, streptomycin, and L-glutamine. HEK293, L, cos 7, and suFU−/− mouse embryonic fibroblast cells were maintained in DMEM containing 10% (v/v) fetal bovine serum, penicillin, streptomycin, and L-glutamine. Smo::EGFP, SmoM2::GFP, and Ivs::tagRFPT were cloned into pBabe to generate retroviral particles for infection. Smo::EGFP/Ivs::tagRFPT and SmoM2::GFP/Ivs::tagRFPT stable cell lines were generated through viral infection of NIH/3T3^12. A ShhLightII Gli reporter cell line was obtained from the American Type Culture Collection (ATCC) and used in luciferase reporter assays to measure Hh pathway activity. The cell line contains a stably integrated Gli-responsive Firefly luciferase reporter and a constitutive Renilla luciferase expression construct^33. Subclones expressing Smo or SmoM2 in ShhLightII cells were used for chemical epistasis analyses.
as §1, §2

Hh pathway activity [3] = assay: Priming and withdrawal of compound followed by Shh stimulation, Gli-luciferase reporter (hypersensitivity); type: cell-based; details: for hypersensitivity to Hh pathway stimulation after priming with and removal of compound, Gli-luciferase: priming 24 hours, washout, then Shh (or SAG) stimulation
Description: as §1
Following the removal of drug containing medium, and extensive washing, cells were stimulated with either Hh ligand, or the direct-binding Smo agonist SAG^17,18.
as §2

| pIC50 (Smo; Cos7/Smo expression, stimulus none, read-out: IC50, competition of BODIFY-cyclopamine-Smo binding) | pIC50 (Hh pathway activity [2]; Mus musculus, Shh Light II, 3T3/Shh-LightII cells, stimulus Shh, read-out: IC50, inhibition of Shh-induced expression of Gli-luciferase reporter) | hypersensitivity to Hh pathway stimulation after priming with and removal of compound, Gli-luciferase (Hh pathway activity [3]) | pEC50 (Hh pathway activity [3]; cells treated 24 hours, compound withdrawal prior to Shh addition, read-out: EC50 of induced response to priming) | SMILES | Shh driven hyperactivation after removal of compound, CGNP proliferation assay ([1]; CGNPs, after removal of compound) | pIC50 ([1]; Mus musculus, Neuron, pH 3, Ptch ± CGNP, stimulus Shh, read-out: IC50, Shh induced cell proliferation marked by pH 3) | effect on Shh-induced pH3 marked proliferation of CGNPs ([1]; Ptch1+/− CGNPs, Shh) | effect on Wnt pathway reporter activity (Wnt signaling activity) | competition of Bodipy-Cyc binding to Smo (Smo) | effect on GDC0449 inhibition of Shh-stimulated CGNP proliferation ([1]; FA 10 μM co-administered with GDC0449) | Shh-driven CGNP proliferation ([1]; FA 10 μM with Shh) | number of proliferative pH3 positive CGNPs ([1]; FA 120 μM) | effect of co-stimulation on Shh-induced transcriptional response (Hh pathway activity [2]; 10 μM FA together with Shh) |
| --- | --- | --- | --- | --- | --- | --- | --- | --- | --- | --- | --- | --- | --- |
| 7.00 | 5.70 | no Shh driven hyperactivation |  | CCN(CC)c1ccc(/C=N/NC(=O)c2ccc(O)cc2)cc1 [DY131] | no Shh driven hyperactivation | > 6.20 | dramatically decreased | absence of an inhibitory activity | effective competitor |  |  |  |  |
|  |  | higher induction of pathway activity | ~5.40 | CC1(C)O[C@@H]2C[C@H]3[C@@H]4C[C@H](F)C5=CC(=O)C=C[C@]5(C)[C@@]4(F)[C@@H](O)C[C@]3(C)[C@]2(C(=O)CO)O1 [FA, fluocinolone acetonide] |  |  |  | no change was detected | dose-dependent competition | impaired | markedly enhanced | elevated | dose-dependent enhancement |
